Experimental data as given in paper PMC4697445 (Journal of medicinal chemistry, 2015).
Like-named read-outs stand apart in the source and are kept apart here.

Tests used:
Biodistribution in rats = format: in vivo, male Sprague-Dawley rats; conditions: rat; for in vivo metabolic defluorination (bone activity): 5 to 60 min p.i.; for blood uptake / bone uptake / brain uptake / fat uptake / kidney uptake / liver uptake / muscle uptake: iv, mean ± SD, n = 4
[1] = for radioactivity of arterial blood found in the plasma: plasma separated from packed red cells
PDE10A [2] = biological target: PDE10A (Rattus norvegicus, UniProt Q9QYJ6); conditions: by 30 min p.i.
PDE10A [3] = conditions: for ratios of uptake in the striatum vs nontarget brain regions: by 40 min p.i.; for visualization of striatum in microPET: cynomolgus macaque, summed images 0 to 180 min
PDE10A [4] = conditions: cited from earlier work
[5] = cited from earlier work

PDE10A (Rattus norvegicus, UniProt Q9QYJ6), sequence (Q9QYJ6 whole entry): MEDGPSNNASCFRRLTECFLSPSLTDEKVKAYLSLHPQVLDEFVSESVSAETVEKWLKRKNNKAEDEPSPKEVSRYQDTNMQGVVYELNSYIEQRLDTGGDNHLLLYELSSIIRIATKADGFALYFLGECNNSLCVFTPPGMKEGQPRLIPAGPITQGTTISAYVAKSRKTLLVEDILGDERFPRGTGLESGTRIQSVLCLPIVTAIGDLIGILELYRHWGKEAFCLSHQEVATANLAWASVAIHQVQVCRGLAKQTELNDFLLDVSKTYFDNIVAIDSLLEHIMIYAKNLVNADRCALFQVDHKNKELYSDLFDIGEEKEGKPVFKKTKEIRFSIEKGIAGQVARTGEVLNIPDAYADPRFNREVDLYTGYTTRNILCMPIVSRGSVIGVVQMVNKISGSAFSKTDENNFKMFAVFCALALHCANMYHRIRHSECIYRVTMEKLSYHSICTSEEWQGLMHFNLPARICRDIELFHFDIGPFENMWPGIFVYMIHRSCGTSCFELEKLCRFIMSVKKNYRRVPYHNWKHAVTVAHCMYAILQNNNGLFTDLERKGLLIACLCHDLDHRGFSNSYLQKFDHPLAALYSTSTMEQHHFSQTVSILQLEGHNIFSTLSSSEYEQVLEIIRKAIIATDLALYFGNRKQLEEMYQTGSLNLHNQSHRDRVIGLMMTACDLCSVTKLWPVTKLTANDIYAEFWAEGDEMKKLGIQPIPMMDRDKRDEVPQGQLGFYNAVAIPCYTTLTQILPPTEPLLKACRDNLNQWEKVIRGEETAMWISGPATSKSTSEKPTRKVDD

| blood uptake (Biodistribution in rats; 5 min p.i.) [%ID/g] | bone uptake (Biodistribution in rats; 5 min p.i.) [%ID/g] | brain uptake (Biodistribution in rats; 5 min p.i.) [%ID/g] | fat uptake (Biodistribution in rats; 5 min p.i.) [%ID/g] | kidney uptake (Biodistribution in rats; 5 min p.i.) [%ID/g] | liver uptake (Biodistribution in rats; 5 min p.i.) [%ID/g] | muscle uptake (Biodistribution in rats; 5 min p.i.) [%ID/g] | blood uptake (Biodistribution in rats; 30 min p.i.) [%ID/g] | bone uptake (Biodistribution in rats; 30 min p.i.) [%ID/g] | brain uptake (Biodistribution in rats; 30 min p.i.) [%ID/g] | fat uptake (Biodistribution in rats; 30 min p.i.) [%ID/g] | kidney uptake (Biodistribution in rats; 30 min p.i.) [%ID/g] | liver uptake (Biodistribution in rats; 30 min p.i.) [%ID/g] | muscle uptake (Biodistribution in rats; 30 min p.i.) [%ID/g] | blood uptake (Biodistribution in rats; 60 min p.i.) [%ID/g] | bone uptake (Biodistribution in rats; 60 min p.i.) [%ID/g] | brain uptake (Biodistribution in rats; 60 min p.i.) [%ID/g] | fat uptake (Biodistribution in rats; 60 min p.i.) [%ID/g] | kidney uptake (Biodistribution in rats; 60 min p.i.) [%ID/g] | SMILES | in vivo metabolic defluorination (bone activity) (Biodistribution in rats) | other results |
| --- | --- | --- | --- | --- | --- | --- | --- | --- | --- | --- | --- | --- | --- | --- | --- | --- | --- | --- | --- | --- | --- |
| 0.362 ± 0.048 | 0.189 ± 0.004 | 0.118 ± 0.012 | 0.213 ± 0.007 | 2.200 ± 0.158 | 6.88 ± 1.15 | 0.247 ± 0.031 | 0.226 ± 0.073 | 0.091 ± 0.012 | 0.078 ± 0.009 | 0.302 ± 0.033 | 1.055 ± 0.218 | 6.98 ± 0.99 | 0.134 ± 0.019 | 0.215 ± 0.008 | 0.142 ± 0.001 | 0.101 ± 0.002 | 0.259 ± 0.025 | 0.765 ± 0.153 | Cn1cc(-c2ccncc2)c(-c2ccc(OCc3cc(OCC[18F])c4ccccc4n3)cc2)n1 [[^18F]18d, 4-((2-Fluoro-^18F)ethoxy)-2-((4-(1-methyl-4-(pyridin-4-yl)-1H-pyrazol-3-yl)phenoxy)methyl)quinoline] | appeared more stable to in vivo defluorination | liver uptake (Biodistribution in rats; 60 min p.i.): 3.29 ± 0.56 %ID/g; muscle uptake (Biodistribution in rats; 60 min p.i.): 0.132 ± 0.011 %ID/g; % peak 1 (radiometabolite, retention time ~3.5 min) ([1]; NHP plasma, 2 min p.i.): 1%; % peak 2 (radiometabolite, retention time ~7.5 min) ([1]; NHP plasma, 2 min p.i.): 0%; % peak 1 (radiometabolite, retention time ~3.5 min) ([1]; NHP plasma, 15 min p.i.): 4%; % peak 2 (radiometabolite, retention time ~7.5 min) ([1]; NHP plasma, 15 min p.i.): 0%; % peak 1 (radiometabolite, retention time ~3.5 min) ([1]; NHP plasma, 30 min p.i.): 7%; % peak 2 (radiometabolite, retention time ~7.5 min) ([1]; NHP plasma, 30 min p.i.): 1%; % peak 1 (radiometabolite, retention time ~3.5 min) ([1]; NHP plasma, 60 min p.i.): 19%; % peak 2 (radiometabolite, retention time ~7.5 min) ([1]; NHP plasma, 60 min p.i.): 5%; % peak 1 (radiometabolite, retention time ~3.5 min) ([1]; NHP plasma, 90 min p.i.): 32%; % peak 2 (radiometabolite, retention time ~7.5 min) ([1]; NHP plasma, 90 min p.i.): 9%; radioactivity of arterial blood found in the plasma [1]: 65–75%; ratio of activity in the striatum versus nontarget brain regions (PDE10A [2]): > 2 fold; ratios of uptake in the striatum vs nontarget brain regions (PDE10A [3]; cynomolgus macaque microPET): > 3 fold; visualization of striatum in microPET (PDE10A [3]): clear visualization of the PDE10A-enriched striatum |
| – | – | – | – | – | – | – | – | – | – | – | – | – | – | – | – | – | – | – | Cn1cc(-c2ccncc2)c(-c2ccc(OCc3ccc4ccccc4n3)cc2)n1 [[^11C]MP-10] | – | brain uptake ([5]; 5 min p.i.): 0.162 ± 0.025 %ID/g; brain uptake ([5]; 30 min p.i.): 0.066 ± 0.008 %ID/g; brain uptake ([5]; 60 min p.i.): […] |
| 0.343 ± 0.061 | 0.182 ± 0.003 | 0.092 ± 0.011 | 0.119 ± 0.021 | 1.789 ± 0.332 | 4.24 ± 0.74 | 0.166 ± 0.017 | 0.306 ± 0.016 | 0.144 ± 0.006 | 0.129 ± 0.005 | 0.202 ± 0.023 | 1.022 ± 0.103 | 3.17 ± 0.55 | 0.156 ± 0.014 | 0.287 ± 0.010 | 0.224 ± 0.015 | 0.149 ± 0.013 | 0.124 ± 0.011 | 0.841 ± 0.087 | Cn1cc(-c2ccncc2)c(-c2ccc(OCc3nc4ccccc4cc3OCC[18F])cc2)n1 [[^18F]20a, 3-((2-Fluoro-^18F)ethoxy)-2-((4-(1-methyl-4-(pyridin-4-yl)-1H-pyrazol-3-yl)phenoxy)methyl)-quinoline] | appeared more stable to in vivo defluorination | liver uptake (Biodistribution in rats; 60 min p.i.): 1.80 ± 0.62 %ID/g; muscle uptake (Biodistribution in rats; 60 min p.i.): 0.134 ± 0.009 %ID/g; % peak 1 (radiometabolite, retention time ~3.5 min) ([1]; NHP plasma, 2 min p.i.): 0%; % peak 2 (radiometabolite, retention time ~7.5 min) ([1]; NHP plasma, 2 min p.i.): 0%; % parent ([1]; NHP plasma, 15 min p.i.): > 90%; % peak 1 (radiometabolite, retention time ~3.5 min) ([1]; NHP plasma, 15 min p.i.): 6%; % peak 2 (radiometabolite, retention time ~7.5 min) ([1]; NHP plasma, 15 min p.i.): 2%; % peak 1 (radiometabolite, retention time ~3.5 min) ([1]; NHP plasma, 30 min p.i.): 15%; % peak 2 (radiometabolite, retention time ~7.5 min) ([1]; NHP plasma, 30 min p.i.): 8%; % peak 1 (radiometabolite, retention time ~3.5 min) ([1]; NHP plasma, 60 min p.i.): 29%; % peak 2 (radiometabolite, retention time ~7.5 min) ([1]; NHP plasma, 60 min p.i.): 14%; % peak 1 (radiometabolite, retention time ~3.5 min) ([1]; NHP plasma, 90 min p.i.): 39%; % peak 2 (radiometabolite, retention time ~7.5 min) ([1]; NHP plasma, 90 min p.i.): 14%; radioactivity of arterial blood found in the plasma [1]: 65–75%; ratio of activity in the striatum versus nontarget brain regions (PDE10A [2]): > 2 fold; ratios of uptake in the striatum vs nontarget brain regions (PDE10A [3]; cynomolgus macaque microPET): > 3 fold; target:nontarget ratios (PDE10A [3]; cynomolgus macaque microPET, by 70 min p.i.): > 5 fold; visualization of striatum in microPET (PDE10A [3]): clear visualization of the PDE10A-enriched striatum |
